According to patent publication EP0565593B1, “REDUCING PESTICIDAL INTERACTIONS IN CROPS” (priority 1990, dated 1992):

Key:
Corn = test: Field trials, PPI, PRE and POE herbicide applications with terbufos (Example 7); assay type: in vivo
Text: This example summarizes the results of one series of field trials from a plurality of locations and soil types wherein test chemicals were applied in various modes including pre-plant incorporated (PPI), post emergence (POE) and preemergence (PRE) with and without a safener (antidote). Test Chemicals were Herbicide Nos 1, 2, 3 and 7-9; Insecticide No. 1 and Antidote No. 1.
In these trials Insecticide No. 1 (terbufos) was T-banded or furrow applied at labeled rates prior to planting corn. PPI herbicide treatments were applied prior to insecticide applications; PRE treatments were applied after the insecticide application either prior to or after seeding the corn. POE herbicide applications were made at 2 corn-growth stages, i.e., early post (EP) at the 2-3 leaf stage and late post (LP) at the 4-7 leaf stage. Plots were small plot with 3 replications in a randomized complete block design. In the PRE and PPI herbicide treatments, Antidote No. 1 was applied as a tankmix in both treatments. In the POE herbicide treatments, that antidote was applied as a tank mix with the herbicide at the EP and LP stages.

VELE (velvetleaf) = test: Greenhouse test Procedure II (Example 4; Table 4); assay type: in vivo, Abutilon theophrasti; settings: 3 weeks
Procedure: Containers were filled and compacted with a fumigated silt loam top soil to a depth of about 1.3 cm from the top of the container. A first container was designated as an untreated control, a second container was designated as a herbicide control, and a third container was designated as a herbicide + antidote test container. Each of the containers was seeded with a crop species. A measured amount of herbicide dispersed or dissolved in acetone was applied to a measured quantity of soil. To this same quantity of soil treated with herbicide, there was added a measured amount of antidote dispersed or dissolved in acetone. The quantity of soil treated with the herbicide and antidote was thoroughly mixed to incorporate the herbicide and antidote in the soil uniformly. The seed bed in the third container of soil was covered with the soil treated with the herbicide and antidote and the container was leveled. For each test series, the seed beds of the first and second containers were likewise covered by soil layers. the cover layer of the first container was not treated with herbicide or antidote.
This procedure is the same as Procedure I, but modified in the manner that after incorporation of the chemicals (herbicide, antidote and insecticide), the containers with the covered seedbed were treated with an initial overhead irrigation equivalent to 0.6 cm rainfall, then subsequently sub-irrigated as required on greenhouse benches.
The procedure used in this test was Procedure No. 2 above. Formulations of herbicide, insecticide and antidote were applied via track sprayer sequentially onto cover layers, incorporated into the soil which was spread over seedbeds, then irrigated from above with 0.6 cm water. Observations were made three (3) weeks after treatment.

Giant foxtail (GIFT) = test: Greenhouse test Procedure VI (Examples 59-61; Tables 58-60); assay type: in vivo
Text: (§1) This procedure describes interaction among herbicide, biocide and antidote when the herbicide is incorporated in a soil cover layer and the biocide and the antidote are applied in a soil furrow containing crop seed before emergence of the crop. The soil and seeding depth were described in Procedure IV. A first container was designated as an untreated control, a second container was designated as a herbicide control, a third container was designated as a herbicide + biocide control and a fourth container as a herbicide + biocide + antidote test container. The biocide and antidote were formulated as granules. The biocide was applied to the soil furrows of the third and fourth containers at an application rate of 1.1 mg of active compound per cm of row. The antidote was applied to the soil furrow of the fourth container at an application rate of 0.37 mg of active compound per cm of row. A measured amount of the herbicide dispersed or dissolved in acetone was applied to a measured quantity of soil. The quantity of soil treated with the herbicide was thoroughly mixed to incorporate the herbicide. Samples of this soil were used to cover the seed beds of the second, third and fourth containers. For each test series, the seed bed of the first container was likewise covered by a soil layer not treated with herbicide and without biocide or antidote in the soil furrow.
(§2) The containers were then placed on a bench in a greenhouse. Watering was by subirrigation plus overhead irrigation after the plants emerged. All treatments were run in duplicate. Plant response was observed according to Procedure IV. Variations in this procedure will be noted in the examples.
(§3) The procedure used in this example involved the PPI application of biocide and safener as described in general Procedure VI above. The "primary" herbicide in this test was MON-12000 (Herbi-cide No. 1) in admixture with other herbicides designated as "co-herbicides", which included LASSO® (co-herbicide B); DUAL® (C); acetochlor (A); EPTAM® (D); butylate (E) and PURSUIT® (K).
(§4) The in-furrow treatments with blended COUNTER 15G and antidote mixtures was as described in above examples. MON-12000 and the co-herbicides were formulated in acetone and applied as tank mixtures, incorporated into Dupo silt loam soil with a rotary drum mixer. Subsamples were used to cover seeded and in-furrow treated 10.2 cm pots. Pots were placed on greenhouse benches and subirrigated. Plant responses were observed thirteen days after PPI initiation. Test results (average of two replications) are shown in Table 58, wherein giant foxtail (GIFT) was used in place of shattercane.
(§5) This test was conducted in the same manner used in Example 59. All biocide and antidote components were the same and in these tests XRD-498 (Herbicide No. 21) was the prime herbicide. Co-herbicides are shown in Table 59 together with test data.
(§6) In one other test conducted as described in the preceding examples in this series of tests, the herbicide PURSUIT® was used as the primary herbicide (in the context of this invention) together with the same insecticide and safeners as above and the co-herbicides shown in Table 60, together with test results.

Velvetleaf (VELE) = test: as above; assay type: in vivo, Abutilon theophrasti
Text: as §1, §2, §3, §4, §5, §6

[1] = Antidote + Biocide No. 1 in furrow, Herbicide No. 6 0.14 Kg/Ha PPI
[2] = Antidote + Biocide No. 1 in furrow, Herbicide No. 11 0.0044 Kg/Ha PPI
[3] = Antidote + Biocide No. 1 in furrow, Herbicide No. 12 0.0044 Kg/Ha PPI
[4] = Antidote + Biocide No. 1 in furrow, Herbicide No. 13 0.0011 Kg/Ha PPI
[5] = Antidote + Biocide No. 1 in furrow, Herbicide No. 13 0.0022 Kg/Ha PPI
[6] = Antidote + Biocide No. 1 in furrow, Herbicide No. 14 0.07 Kg/Ha PPI
[7] = Antidote + Biocide No. 1 in furrow, Herbicide No. 16 0.07 Kg/Ha PPI, 13 days
[8] = Antidote + Biocide No. 1 in furrow, Herbicide No. 17 0.14 Kg/Ha PPI, 13 days
[9] = Antidote + Biocide No. 1 in furrow, Herbicide No. 18 0.04 Kg/Ha PPI, 13 days
[10] = Antidote + Biocide No. 1 in furrow, Herbicide No. 20 1.12 Kg/Ha PPI, 13 days
[11] = Antidote + Biocide No. 1 in furrow, Herbicide No. 22 0.28 Kg/Ha PPI, 13 days
[12] = Antidote + Biocide No. 1 in furrow, Herbicide No. 24 0.14 Kg/Ha PPI, 13 days
[13] = Antidote + Biocide No. 1 in furrow, Herbicide No. 25 0.14 Kg/Ha PPI, 13 days
[14] = Antidote + Biocide No. 1 in furrow, Herbicide No. 26 2.24 Kg/Ha PPI, 13 days
[15] = Antidote + Biocide No. 1 in furrow, Herbicide No. 28 0.04 Kg/Ha PPI, 13 days
[16] = Herbicide No. 12 0.0044 Kg/Ha PPI + Biocide No. 1 in furrow, no antidote
[17] = Herbicide No. 12 0.0044 Kg/Ha PPI alone, average of two reps

Row | SMILES | % Inhibition GIFT (Giant foxtail (GIFT); [1]) | % Inhibition GIFT (Giant foxtail (GIFT); [2]) | % Inhibition GIFT (Giant foxtail (GIFT); [3]) | % Inhibition GIFT (Giant foxtail (GIFT); [4]) | % Inhibition GIFT (Giant foxtail (GIFT); [5]) | % Inhibition GIFT (Giant foxtail (GIFT); [6]) | % Inhibition GIFT (Giant foxtail (GIFT); [7]) | % Inhibition GIFT (Giant foxtail (GIFT); [8]) | % Inhibition GIFT (Giant foxtail (GIFT); [9]) | % Inhibition GIFT (Giant foxtail (GIFT); [10]) | % Inhibition GIFT (Giant foxtail (GIFT); [11]) | % Inhibition GIFT (Giant foxtail (GIFT); [12]) | % Inhibition GIFT (Giant foxtail (GIFT); [13]) | % Inhibition GIFT (Giant foxtail (GIFT); [14]) | % Inhibition GIFT (Giant foxtail (GIFT); [15]) | % Inhibition VELE (Velvetleaf (VELE); [1]) | % Inhibition VELE (Velvetleaf (VELE); [2]) | % Inhibition VELE (Velvetleaf (VELE); [3]) | % Inhibition VELE (Velvetleaf (VELE); [4]) | % Inhibition VELE (Velvetleaf (VELE); [5]) | also measured
1 | CC1(C)OC(c2ccco2)CN1C(=O)C(Cl)Cl (stereo not shown) [Antidote No. 1, Oxazolidine, 3-(dichloroacetyl)-2,2-dimethyl-5-(2-furanyl)-] |  |  |  |  |  |  |  |  |  |  |  |  |  |  |  |  |  |  |  |  | safening of insecticide interactions (Corn; antidote tankmix POE with Herbicide No. 7, Insecticide No. 1): effectively safened; crop injury (Corn; mean of nine locations, PRE and PPI, Insecticide No. 1, 1:1 Herbicide No. 1:Antidote No. 1 and 30:1 Herbicide No. 2:Antidote No. 1): reduced from non-commercially-acceptable to commercially-acceptable levels; % Injury VELE (VELE (velvetleaf); Antidote 1 0.07 + Herbicide 1 0.07 kg/Ha): 8%; % Injury VELE (VELE (velvetleaf); Antidote 1 0.07 + Herbicide 4 0.07 kg/Ha): 0%; % Injury VELE (VELE (velvetleaf); Antidote 1 0.07 + Herbicide 5 0.07 kg/Ha): 68%; % Injury VELE (VELE (velvetleaf); Antidote 1 0.07 + Herbicide 6 0.07 kg/Ha): 5%; % Injury VELE (VELE (velvetleaf); Antidote 1 0.14 + Herbicide 1 0.14 kg/Ha): 43%; % Injury VELE (VELE (velvetleaf); Antidote 1 0.14 + Herbicide 4 0.14 kg/Ha): 30%; % Injury VELE (VELE (velvetleaf); Antidote 1 0.14 + Herbicide 5 0.14 kg/Ha): 68%; % Injury VELE (VELE (velvetleaf); Antidote 1 0.14 + Herbicide 6 0.14 kg/Ha): 28%; % Injury VELE (VELE (velvetleaf); Insecticide 2 3.36 + Antidote 1 0.014 + Herbicide 1 0.14 kg/Ha): 53%; % Injury VELE (VELE (velvetleaf); Insecticide 2 3.36 + Antidote 1 0.07 + Herbicide 1 0.07 kg/Ha): 23%; % Injury VELE (VELE (velvetleaf); Insecticide 2 3.36 + Antidote 1 0.07 + Herbicide 4 0.07 kg/Ha): 0%; % Injury VELE (VELE (velvetleaf); Insecticide 2 3.36 + Antidote 1 0.07 + Herbicide 5 0.07 kg/Ha): 55%; % Injury VELE (VELE (velvetleaf); Insecticide 2 3.36 + Antidote 1 0.07 + Herbicide 6 0.07 kg/Ha): 15%; % Injury VELE (VELE (velvetleaf); Insecticide 2 3.36 + Antidote 1 0.14 + Herbicide 4 0.14 kg/Ha): 78%; % Injury VELE (VELE (velvetleaf); Insecticide 2 3.36 + Antidote 1 0.14 + Herbicide 5 0.14 kg/Ha): 83%; % Injury VELE (VELE (velvetleaf); Insecticide 2 3.36 + Antidote 1 0.14 + Herbicide 6 0.14 kg/Ha): 40%
2 | COC(=O)COC(c1ccccc1)c1ccccc1 [compound 12] | 60% | 0% | 0% | 0% | 25% | 0% | 35% | 80% | 50% | 25% | 20% | 20% | 25% | 0% | 35% | 65% | 70% | 60% | 15% | 60% | % Inhibition GIFT (Giant foxtail (GIFT); [16]): 0%; % Inhibition GIFT (Giant foxtail (GIFT); [17]): 0%; % Inhibition VELE (Velvetleaf (VELE); [6]): 85%; % Inhibition VELE (Velvetleaf (VELE); [7]): 60%; % Inhibition VELE (Velvetleaf (VELE); [8]): 80%; % Inhibition VELE (Velvetleaf (VELE); [9]): 70%; % Inhibition VELE (Velvetleaf (VELE); [10]): 95%; % Inhibition VELE (Velvetleaf (VELE); [11]): 75%; % Inhibition VELE (Velvetleaf (VELE); [12]): 90%; % Inhibition VELE (Velvetleaf (VELE); [13]): 70%; % Inhibition VELE (Velvetleaf (VELE); [14]): 55%; % Inhibition VELE (Velvetleaf (VELE); [15]): 80%; % Inhibition VELE (Velvetleaf (VELE); [16]): 50%; % Inhibition VELE (Velvetleaf (VELE); [17]): 50%
3 | CC1(C)OC(c2ccco2)CN1C(=O)C(Cl)Cl (stereo not shown) [compound 1] | 65% | 0% | 0% | 25% | 35% | 0% | 30% | 75% | 55% | 20% | 25% | 10% | 30% | 0% | 50% | 70% | 75% | 55% | 25% | 60% | % Inhibition VELE (Velvetleaf (VELE); [6]): 85%; % Inhibition VELE (Velvetleaf (VELE); [7]): 60%; % Inhibition VELE (Velvetleaf (VELE); [8]): 80%; % Inhibition VELE (Velvetleaf (VELE); [9]): 50%; % Inhibition VELE (Velvetleaf (VELE); [10]): 95%; % Inhibition VELE (Velvetleaf (VELE); [11]): 80%; % Inhibition VELE (Velvetleaf (VELE); [12]): 90%; % Inhibition VELE (Velvetleaf (VELE); [13]): 75%; % Inhibition VELE (Velvetleaf (VELE); [14]): 65%; % Inhibition VELE (Velvetleaf (VELE); [15]): 90%
4 | N#CCOc1ccc(Cl)c2cccnc12 [compound 33] | 70% | 0% | 0% | 10% | 35% | 0% | 45% | 80% | 45% | 30% | 15% | 25% | 25% | 15% | 40% | 70% | 65% | 60% | 20% | 50% | % Inhibition VELE (Velvetleaf (VELE); [6]): 85%; % Inhibition VELE (Velvetleaf (VELE); [7]): 65%; % Inhibition VELE (Velvetleaf (VELE); [8]): 75%; % Inhibition VELE (Velvetleaf (VELE); [9]): 40%; % Inhibition VELE (Velvetleaf (VELE); [10]): 90%; % Inhibition VELE (Velvetleaf (VELE); [11]): 90%; % Inhibition VELE (Velvetleaf (VELE); [12]): 95%; % Inhibition VELE (Velvetleaf (VELE); [13]): 70%; % Inhibition VELE (Velvetleaf (VELE); [14]): 50%; % Inhibition VELE (Velvetleaf (VELE); [15]): 80%
